Where “and” joins values, the source holds several entries; their conditions need not be identical. Equal values may be shown once. Read-outs that look alike come from different tables or passages of the source. Marks after values point to notes of the source that are not given here.
Key:
[1] = Rapamycin coating affinity testing: distribution between solid and liquid phases with surfactant in water (UV-Vis); type: physicochemical; conditions: for Cal. Rapa (Sediment) / Cal. Rapa (Supernate): calculated from UV-Vis absorbance; for Cal. Rapa (Sediment): in mg (unit assumed); for Cal. Rapa (Supernate): unit assumed; for total (% original) / total (% of original): percent recovery of initial rapamycin loading
Description: One method of applying a positive surface charge to the coating is to add DMAB to the coating such that it is on its surface, at least. […] The coating is then sintered according to the RESS process. […] Care should be taken in certain embodiments to optimize the DMAB's application to the balloon and to handle the balloon thereafter to keep the DMAB from washing off. […] The initial mass of rapamycin is shown in the column labeled “Original rapa.” The supernatant (liquid phase) contains the material of interest as it is drug particles coated with the surfactant modifier. The values presented in the columns labeled “Cal. Rapa” are calculated from the UV-Vis absorbance spectrum of the sediment or supernatant respectively. The ratio of these two values determined the partition coefficient between the sediment and supernatant (reported in the column labeled “ratio”).
The initial mass of rapamycin is shown in the column labeled “Original rapa.” The supernatant (liquid phase) contains the material of interest as it is drug particles coated with the surfactant modifier. The values presented in the columns labeled “Cal. Rapa” are calculated from the UV-Vis absorbance spectrum of the sediment or supernatant respectively. The ratio of these two values determined the partition coefficient between the sediment and supernatant (reported in the column labeled “ratio”).

[2] = Study 1 balloons left uninflated in rabbit aorta, exposed to blood flow: drug lost
in vivo = conditions: rabbit, iliac artery wall, other: coated balloon catheter deployed in iliac arteries
Experimental: The coated balloons were sterilized and then used in a rabbit animal study. The balloons were deployed at the target sites (iliac arteries) in the rabbits in the study, two balloons per animal. […] The amount of drug per tissue was determined using a LC-MS test method. Liquid chromatography-mass spectrometry (LC-MS) was used to determine the amount of drug per tissue. Prior to LC-MS, artery samples were homogenized using an Omni hand held probe (1:99 w:v in 80:20 MeOH:2 mM Ammonium Acetate in water with 0.1% Formic Acid). The density of the artery was assumed to be 1 g/mL
Balloons were inflated for a minimum of one minute. […] The estimated time the artery was exposed to blood flow was also tracked, and refers to the amount of time after the balloon was inflated.

[3] = Sirolimus concentration in rabbit blood after inflation of two coated balloons per animal; type: in vivo
Experimental: After a 2d balloon inflation, blood samples were taken at the given time points (0 h, 6 h, 24 h).

[4] = 1:1 Surfactant to Rapa (w/w), 10x dilution in water
[5] = 1:1 Surfactant to Rapa, 10x dilution
[6] = 1:1 Surfactant to Rapa, 10x dilution, partition between supernatant and sediment
[7] = 1:10 Surfactant to Rapa (w/w), 100x dilution in water
[8] = 1:10 Surfactant to Rapa, 100x dilution
[9] = 10:1 Surfactant to Rapa (w/w), 6x dilution in water
[10] = 10:1 Surfactant to Rapa, 6x dilution

CCCCCCCCCCCC[N+](C)(C)CCCCCCCCCCCC.[Br-] [DMAB, didodecyldimethylammonium bromide]
Sediment wt [1, 4]: 2.2 mg | Cal. Rapa (Sediment) [1, 5]: 1.23 | Cal. Rapa (Supernate) [1, 5]: 0.64 mg | ratio super/sed [1, 6]: 0.52 | total (% original) [1, 5]: 98.4% | Sediment wt [1, 7]: 8.52 mg | ratio super/sed [1, 8]: 0.06 | Cal. Rapa (Sediment) [1, 8]: 7.23 | Cal. Rapa (Supernate) [1, 8]: 0.4 mg | total (% of original) [1, 8]: 79.5% | Sediment wt [1, 9]: 3.73 mg | ratio super/sed [1, 10]: 0.83 | Cal. Rapa (Sediment) [1, 10]: 1.23 | Cal. Rapa (Supernate) [1, 10]: 1.02 mg | total (% of original) [1, 10]: 107.1%

CCCCCCCCCCCCCC[N+](C)(C)CCCCCCCCCCCCCC.[Br-] [Dimethylditetradecylammonium bromide, Dimethylditetradecyl Ammonium bromide]
Sediment wt [1, 4]: 2.28 mg | Cal. Rapa (Sediment) [1, 5]: 1.9 | Cal. Rapa (Supernate) [1, 5]: 0.59 mg | ratio super/sed [1, 6]: 0.31 | total (% original) [1, 5]: 113.2% | Sediment wt [1, 9]: 1.9 mg | ratio super/sed [1, 10]: 1.42 | Cal. Rapa (Sediment) [1, 10]: 0.85 | Cal. Rapa (Supernate) [1, 10]: 1.21 mg | total (% of original) [1, 10]: 110.2%

CCCCCCCCCCCC[N+](C)(C)C.[Br-] [Dodecyltrimethylammonium Bromide, Dodecyltrimethyl Ammonium Bromide]
Sediment wt [1, 4]: 1.99 mg | Cal. Rapa (Sediment) [1, 5]: 1.65 | Cal. Rapa (Supernate) [1, 5]: 0.5 mg | ratio super/sed [1, 6]: 0.30 | total (% original) [1, 5]: 108.6% | Sediment wt [1, 7]: 7.7 mg | ratio super/sed [1, 8]: 0.20 | Cal. Rapa (Sediment) [1, 8]: 6.6 | Cal. Rapa (Supernate) [1, 8]: 1.33 mg | total (% of original) [1, 8]: 81.9% | Sediment wt [1, 9]: 2.56 mg | ratio super/sed [1, 10]: 0.65 | Cal. Rapa (Sediment) [1, 10]: 1.2 | Cal. Rapa (Supernate) [1, 10]: 0.78 mg | total (% of original) [1, 10]: 87.6%

CCCCCCCCCCCCCCCC[N+](C)(C)CC.[Br-] [Ethylhexadecyldimethylammonium Bromide]
Sediment wt [1, 4]: 3.85 mg | Cal. Rapa (Sediment) [1, 5]: 1.37 | Cal. Rapa (Supernate) [1, 5]: 0.33 mg | ratio super/sed [1, 6]: 0.24 | total (% original) [1, 5]: 89.5% | Sediment wt [1, 7]: 8.6 mg | ratio super/sed [1, 8]: 0.15 | Cal. Rapa (Sediment) [1, 8]: 6.86 | Cal. Rapa (Supernate) [1, 8]: 1.05 mg | total (% of original) [1, 8]: 80.2% | Sediment wt [1, 9]: 3.21 mg | ratio super/sed [1, 10]: 31.50 | Cal. Rapa (Sediment) [1, 10]: 0.04* | Cal. Rapa (Supernate) [1, 10]: 1.26 mg | total (% of original) [1, 10]: 59.6%

CCCC[N+](CCCC)(CCCC)CCCC.[I-] [Tetrabutylammonium iodide]
Sediment wt [1, 4]: 2.1 mg | Cal. Rapa (Sediment) [1, 5]: 1.97 | Cal. Rapa (Supernate) [1, 5]: 0.6 mg | ratio super/sed [1, 6]: 0.30 | total (% original) [1, 5]: 114.2% | Sediment wt [1, 9]: 2.05 mg | ratio super/sed [1, 10]: 0.39 | Cal. Rapa (Sediment) [1, 10]: 1.07 | Cal. Rapa (Supernate) [1, 10]: 0.42 mg | total (% of original) [1, 10]: 80.1%

CCCCCCCCCCCC[N+](CCCCCCCCCCCC)(CCCCCCCCCCCC)CCCCCCCCCCCC.[Br-] [Tetradodecylammoniumbromid, Tetradodecylammonium bromide]
Sediment wt [1, 4]: 6.31 mg | Cal. Rapa (Sediment) [1, 5]: 1.51 | Cal. Rapa (Supernate) [1, 5]: 0.25 mg | ratio super/sed [1, 6]: 0.17 | total (% original) [1, 5]: 88.0% | Sediment wt [1, 9]: 3.6 mg | ratio super/sed [1, 10]: 0.31 | Cal. Rapa (Sediment) [1, 10]: 1.24 | Cal. Rapa (Supernate) [1, 10]: 0.39 mg | total (% of original) [1, 10]: 73.1%

CO[C@H]1C[C@@H]2CC[C@@H](C)[C@@](O)(O2)C(=O)C(=O)N2CCCC[C@H]2C(=O)O[C@H]([C@H](C)C[C@@H]2CC[C@@H](O)[C@H](OC)C2)CC(=O)[C@H](C)/C=C(\C)[C@@H](O)[C@@H](OC)C(=O)[C@H](C)C[C@H](C)/C=C/C=C/C=C/1C [sirolimus]
Total Sirolimus per Artery (Denuded Arteries, rabbit iliac, 0 h, artery exposed to blood flow 5 or 10 min, single arteries and Average): 7.36 µg and 4.62 µg and 5.75 µg and 4.46 µg and 3.92 µg and 4.27 µg | drug (sirolimus) transferred to artery (Study 1 balloons): 1-5% | sirolimus washed away into circulation (Study 1 balloons, 0 h): 5.4 ± 2.3 µg | sirolimus removed from balloons before inflation ([2]; Study 1 balloons): 65.6±1.3% | average percent drug (sirolimus) lost ([2]; four Study 1 balloons left uninflated two minutes in rabbit aorta, exposed to blood flow, based on batch average UV-Vis): 65.6% | concentration at 0 h (in vivo): 197000 ± 85300 ng/g | Est. Total Sirolimus in Blood Normalized to Human ([3]; 6 hr, based on 5 L of blood in the average human): 0.08 ng/mL and 0.07 ng/mL and 0.06 ng/mL | Est. Total Sirolimus in Blood ([3]; 6 hr, based on 56 mL per kg in rabbits): 0.5 µg and 0.4 µg and 0.3 µg | time within which drug released from balloon and/or artery was cleared from the blood ([3]; rabbit, after balloon inflation): ≤ 24 h | concentration at 0 h ([3]; rabbit, blood, other: coated balloon catheters inflated in iliac arteries, rabbit blood, 0 Hr, two coated balloons per animal, single animals and Average, read-out: Post-Inflation Conc.): 8.35 ng/mL | concentration at 6 h ([3]; rabbit, blood, other: coated balloon catheters inflated in iliac arteries, rabbit blood, 6 hr, two coated balloons per animal, single animals and Average, read-out: Post-Inflation Conc.): 2.82 ng/mL | concentration at 6 h ([3]; rabbit, whole blood, other: inflation of drug-coated balloons in iliac arteries, Est. Total Sirolimus in Blood Normalized to Human, 6 hr, based on 5 L of blood in the average human): 0.1 ng/mL

Poly Histidine
Sediment wt [1, 4]: 7.21 mg | Cal. Rapa (Sediment) [1, 5]: 1.61 | Cal. Rapa (Supernate) [1, 5]: 0.32 mg | ratio super/sed [1, 6]: 0.20 | total (% original) [1, 5]: 92.8% | Sediment wt [1, 7]: 7.9 mg | ratio super/sed [1, 8]: 0.18 | Cal. Rapa (Sediment) [1, 8]: 7.06 | Cal. Rapa (Supernate) [1, 8]: 1.29 mg | total (% of original) [1, 8]: 78.8% | Sediment wt [1, 9]: 2.85 mg | ratio super/sed [1, 10]: 0.30 | Cal. Rapa (Sediment) [1, 10]: 0.94 | Cal. Rapa (Supernate) [1, 10]: 0.28 mg | total (% of original) [1, 10]: 65.6%

Poly-L-Arginine (average or nominal MW of about 5,000 to about 15,000 Da) [Poly Arginine 5,000-15,000]
Sediment wt [1, 4]: 3.72 mg | Cal. Rapa (Sediment) [1, 5]: 1.24 | Cal. Rapa (Supernate) [1, 5]: 0.3 mg | ratio super/sed [1, 6]: 0.24 | total (% original) [1, 5]: 72.6% | Sediment wt [1, 7]: 6.5 mg | ratio super/sed [1, 8]: 0.21 | Cal. Rapa (Sediment) [1, 8]: 5.36 | Cal. Rapa (Supernate) [1, 8]: 1.15 mg | total (% of original) [1, 8]: 66.2% | Sediment wt [1, 9]: 5.11 mg | ratio super/sed [1, 10]: 0.46 | Cal. Rapa (Sediment) [1, 10]: 1.1 | Cal. Rapa (Supernate) [1, 10]: 0.51 mg | total (% of original) [1, 10]: 84.3%

Poly-L-Arginine (average or nominal MW of about 70,000 Da) [Poly Arginine 70,000]
Sediment wt [1, 4]: 11.7 mg | Cal. Rapa (Sediment) [1, 5]: 1.49 | Cal. Rapa (Supernate) [1, 5]: 0.73 mg | ratio super/sed [1, 6]: 0.49 | total (% original) [1, 5]: 100.9% | Sediment wt [1, 7]: 7.9 mg | ratio super/sed [1, 8]: 0.15 | Cal. Rapa (Sediment) [1, 8]: 6.95 | Cal. Rapa (Supernate) [1, 8]: 1.01 mg | total (% of original) [1, 8]: 77.9% | Sediment wt [1, 9]: 2.81 mg | ratio super/sed [1, 10]: 0.18 | Cal. Rapa (Sediment) [1, 10]: 1.18 | Cal. Rapa (Supernate) [1, 10]: 0.21 mg | total (% of original) [1, 10]: 72.0%

Poly-L-Lysine (average or nominal MW of about 28,200 Da) [Poly Lysin 28,200]
Sediment wt [1, 4]: 4.89 mg | Cal. Rapa (Sediment) [1, 5]: 1.36 | Cal. Rapa (Supernate) [1, 5]: 0.35 mg | ratio super/sed [1, 6]: 0.26 | total (% original) [1, 5]: 85.9% | Sediment wt [1, 7]: 7.4 mg | ratio super/sed [1, 8]: 0.11 | Cal. Rapa (Sediment) [1, 8]: 7 | Cal. Rapa (Supernate) [1, 8]: 0.74 mg | total (% of original) [1, 8]: 80.2% | Sediment wt [1, 9]: 4.3 mg | ratio super/sed [1, 10]: 0.11 | Cal. Rapa (Sediment) [1, 10]: 1.2 | Cal. Rapa (Supernate) [1, 10]: 0.13 mg | total (% of original) [1, 10]: 63.0%

Poly-L-Lysine (average or nominal MW of about 67,000 Da) [Poly Lisine 66,700]
Sediment wt [1, 4]: 1.85 mg | Cal. Rapa (Sediment) [1, 5]: 1.43 | Cal. Rapa (Supernate) [1, 5]: 0.33 mg | ratio super/sed [1, 6]: 0.23 | total (% original) [1, 5]: 93.6% | Sediment wt [1, 9]: 2.9 mg | ratio super/sed [1, 10]: 0.10 | Cal. Rapa (Sediment) [1, 10]: 1.2 | Cal. Rapa (Supernate) [1, 10]: 0.12 mg | total (% of original) [1, 10]: 55.2%
